From publication PMC12056667 (Chemical Science, 2025) come the findings set out here.

In experiment [1] the target is T1, Tet(X4) (Escherichia coli, UniProt A0A3T0V9Y5). As to the kind of experiment: Fluorescence polarisation binding assay of probes with purified TDase. As for the experimental part: (§1) NADPH was not included to prevent turnover of the probe to the hydroxylated product, which would likely have a lower binding affinity than the initial probes. Screens were conducted in pH 7.0 buffer with addition of 0.01% Triton-X100 detergent in non-binding plates to minimise adsorption to the plate wells.[45]
Aliquots of TDases were thawed and serially diluted with the assay buffer (100 mM Tris, pH 7.0 with 0.01% Triton X-100) in a V-bottom 96-well plate (Greiner Bio-One). 12.5 μL of each concentration of enzyme was transferred in quadruplicate to a 384-well black, non-binding microtiter plate (Greiner Bio-One). […] 12.5 μL of this solution was added to wells containing enzyme. A negative control of 12.5 μL of the probe solution with 12.5 μL of the assay buffer was included on each plate. The plate was briefly centrifuged (1000 rpm), then incubated at ambient temperature for 30 min before measuring the FP response using a PHERAstar FS microplate reader (BMG Labtech) equipped with an FP optic module (excitation = 540 ± 20 nm, Emission = 590 ± 20 nm, 200 flashes per well). ΔmP values were calculated by subtracting the average mP of the negative controls from the mP measured for each well. To calculate Kd values, the derived ΔmP values were plotted as a function of enzyme concentration and a one-site specific binding model was applied (GraphPad Prism 9.4.1).
A general note: Fluorescence polarisation rises when a labelled molecule tumbles more slowly, as on binding a larger partner.

The target in experiment [2] is Tet(X7). The description is as above. Particulars: 25 nM probe, 5 mM MgCl2, 1 μM FAD, 100 mM Tris pH 7.0, 0.01% Triton X-100. As for the experimental part: as §1
(§2) Aliquots of TDases were thawed and serially diluted with the assay buffer (100 mM Tris, pH 7.0 with 0.01% Triton X-100) in a V-bottom 96-well plate (Greiner Bio-One). 12.5 μL of each concentration of enzyme was transferred in quadruplicate to a 384-well black, non-binding microtiter plate (Greiner Bio-One). Aliquots of 2 mM stock of fluorescent probes 5 and 6 in DMSO were thawed and diluted to 50 nM in the assay buffer with 2 μM FAD and 10 mM MgCl2. 12.5 μL of this solution was added to wells containing enzyme. A negative control of 12.5 μL of the probe solution with 12.5 μL of the assay buffer was included on each plate. The plate was briefly centrifuged (1000 rpm), then incubated at ambient temperature for 30 min before measuring the FP response using a PHERAstar FS microplate reader (BMG Labtech) equipped with an FP optic module (excitation = 540 ± 20 nm, Emission = 590 ± 20 nm, 200 flashes per well). ΔmP values were calculated by subtracting the average mP of the negative controls from the mP measured for each well. To calculate Kd values, the derived ΔmP values were plotted as a function of enzyme concentration and a one-site specific binding model was applied (GraphPad Prism 9.4.1).

The target in experiment [3] is T2, Tet(50) (Unknown prokaryotic organism, UniProt A0A059WYP6).
T2 construct: made in house; host or cells: E. coli BL21(DE3)
The description is as above. As for the experimental part:
as §1, §2

Experiment [4] concerns the target Tet(X5). Described as above. As to conditions: 25 nM probe, 5 mM MgCl2, 1 μM FAD, 100 mM Tris pH 7.0, 0.01% Triton X-100. As for the experimental part:
as §1, §2

Experiment [5] addresses T3, Tet(X2) (Bacteroides thetaiotaomicron, UniProt Q93L51).
T3 construct: For Tet(X2), the full-length protein was prepared rather that the Δ1–10 mutant used previously for crystallographic studies; made in house; host or cells: E. coli BL21(DE3)
Described as above. As for the experimental part:
as §1, §2

The target of experiment [6] is T1, Tet(X4). As to the kind of experiment: Turnover of probe 6 (absorbance and LC-MS). The format is biochemical. As to conditions: with NADPH; decrease of A400 and +16 Da species by LC-MS. As for the experimental part: To investigate whether fluorescent probe 6 binds to the active site of the Tet(X) enzymes, we carried out docking of the probe with Tet(X4)[8] (ESI Fig. S10 ^†). […] We thus considered that probe 6 may be hydroxylated by Tet(X4) when NADPH was added to initiate turnover. We monitored turnover of probe 6 using an absorbance-readout assay with Tet(X4) adapted from previous studies.[33] A decrease in absorbance at 400 nm was observed, consistent with hydroxylation, but was not seen in a control reaction lacking Tet(X4) (ESI Fig. S11 ^†). This observation was corroborated by LC-MS analysis of the reaction (ESI Fig. S12 ^†). Appearance of an apparently mono-hydroxylated species with mass 989.348 Da (calculated mass: 989.3504 Da) was observed, +16 Da relative to the starting material (measured mass: 973.355 Da; calculated mass: 973.3555 Da).
233 Absorbance Activity Assays […]
243 CLARIOstar Plus Microplate reader. The absorbance was monitored at wavelength […] over the […]
245 calculated by measuring the rate of change of A400 during the initial linear regime. […]
247 function of log10([Inhibitor]) in molar units, and the IC50 was determined as above. […]
252 reaction was monitored by recording the absorbance spectra between 200-800 nm at one-minute […]
261 Quenched samples were stored at -20 °C prior to analysis. Samples were analysed using a Xevo G2-XS […]

Each structure is given as a SMILES string. Where only a bound is given, the exact number is not on record here.

For `CN(C)c1ccc2c(-c3ccc(NC(=S)NCC(=O)Nc4cc(N(C)C)c5c(c4O)C(=O)C4=C(O)[C@]6(O)C(=O)C(C(N)=O)=C(O)C(N(C)C)[C@@H]6C[C@@H]4C5)cc3C(=O)[O-])c3ccc(=[N+](C)C)cc-3oc2c1` (stereo partly drawn) [Probe 6, TRITC-glycyl-minocycline], the Kd in experiment [1] (Kd, 25 nM probe, 5 mM MgCl2, 1 μM FAD, 100 mM Tris pH 7.0, 0.01% Triton X-100) was 0.0173 ± 0.0019 µM; in experiment [1] (apparent Kd, with 5 mM MgCl2), 0.0181 ± 0.0024 µM; in experiment [1] (apparent Kd, without MgCl2), 0.188 ± 0.033 µM; in experiment [2], 0.0405 ± 0.0051 µM; in experiment [3] (25 nM probe, 5 mM MgCl2, 1 μM FAD, 100 mM Tris pH 7.0, 0.01% Triton X-100) it was greater than 5 µM; in experiment [4], 0.0106 ± 0.0013 µM. The compound further registered a Kd in experiment [5] of 0.0224 ± 0.004 µM. In addition, the “binding to Tet(50) (in words)” value in experiment [3] (up to a concentration of 5 μM of enzyme) is reported as “no detectable binding”. In experiment [6], the “turnover by Tet(X4) (in words)” value is on record as “can be turned over”.
